Broadly, the IC50 is the concentration that inhibits the measured activity by half.

In brackets after ≈: the same amount, converted by molar mass.

Series [1] has as its system fluconazole-susceptible C. albicans strain: CAAL93. Nature of the series: Antifungal susceptibility, spectrofluorimetric microdilution, CAAL93. Particulars: Candida albicans, read-out: MIC values CAAL93. Format: cell-based. The procedure, abridged: (§1)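 Tested by spectrofluorimetric broth microdilution against a panel of Candida strains with differing azole susceptibility, including fluconazole-resistant C. krusei, C. parapsilosis s.l. and C. albicans isolates (CAAL117 carries erg11 mutations and is voriconazole-resistant).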
In general terms: In broth dilution the organism is exposed to a series of concentrations in liquid medium.

In series [2] the test system is fluconazole-resistant C. albicans strain CAAL111 (efflux pump). Put plainly: microbe, parasite or virus in culture. It counts as cell-based. Particulars: Candida albicans, read-out: MIC values CAAL111. The procedure, abridged: as §1
The subject of series [3] is fluconazole-resistant C. glabrata (CAGL2). Nature of the series: microbe, parasite or virus in culture. It counts as cell-based. Particulars: Nakaseomyces glabratus, read-out: MIC values CAGL2. The procedure, abridged:
as §1

In series [4] the test system is fluconazole-resistant C. krusei (CAKR8). Put plainly: microbe, parasite or virus in culture. It counts as cell-based. Particulars: Pichia kudriavzevii, read-out: MIC values CAKR8. Put shortly:
as §1

Series [5] concerns fluconazole-resistant C. parapsilosis s.l. (CAPA1). Nature of the series: microbe, parasite or virus in culture. Format: cell-based. Particulars: Lodderomyces parapsilosis, read-out: MIC values CAPA1. The procedure, abridged: as §1
Series [6] deals with fluconazole-resistant C. parapsilosis s.l. (CAPA2). Put plainly: microbe, parasite or virus in culture. It counts as cell-based. Particulars: Lodderomyces parapsilosis, read-out: MIC values CAPA2. The procedure, abridged:
as §1

In series [7] the test system is A. fumigatus susceptible strain ASFU76. Nature of the series: Antifungal susceptibility, spectrofluorimetric microdilution, ASFU76. Format: cell-based, Aspergillus fumigatus. Particulars: Aspergillus fumigatus, read-out: MIC values ASFU76. The procedure, abridged:
(§2)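 Spectrofluorimetric microdilution; MIC = conc. giving 80% inhibition of fluorescence vs control wells. Strains drawn from a panel of eleven A. fumigatus isolates of differing itraconazole susceptibility.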

The test system of series [8] is A. fumigatus susceptible strain ASFU35A. Nature of the series: Antifungal susceptibility, spectrofluorimetric microdilution, ASFU35A. It counts as cell-based, Aspergillus fumigatus. Particulars: Aspergillus fumigatus, read-out: MIC values ASFU35A. The procedure, abridged:
as §2

Series [9] has as its system A. fumigatus susceptible strain ASFU38A. Nature of the series: Antifungal susceptibility, spectrofluorimetric microdilution, ASFU38A. Format: cell-based, Aspergillus fumigatus. Particulars: Aspergillus fumigatus, read-out: MIC values ASFU38A. Put shortly:
as §2

In series [10] the test system is A. fumigatus susceptible strain ASFU7. Nature of the series: Antifungal susceptibility, spectrofluorimetric microdilution, ASFU7. It counts as cell-based, Aspergillus fumigatus. Particulars: Aspergillus fumigatus, read-out: MIC values ASFU7. The procedure, abridged:
as §2

Series [11] concerns A. fumigatus susceptible strain ASFU78. Put plainly: Antifungal susceptibility, spectrofluorimetric microdilution, ASFU78. It counts as cell-based, Aspergillus fumigatus. Particulars: Aspergillus fumigatus, read-out: MIC values ASFU78. The procedure, abridged: as §2
For series [12], the system named is A. fumigatus itraconazole-resistant strain ASFU77 (erg11 mutation). Nature of the series: Antifungal susceptibility, spectrofluorimetric microdilution, ASFU77. Format: cell-based, Aspergillus fumigatus. Particulars: Aspergillus fumigatus, read-out: MIC values ASFU77. Put shortly:
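Susceptibility of A. fumigatus strains was tested by spectrofluorimetric broth microdilution. MIC was the concentration inhibiting 80% of the fluorescence measured in control wells.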

The test system of series [13] is Hela Human cell line. Put plainly: Cytotoxicity on HeLa cells. It counts as cell-based. Particulars: 100 μM. The method, then:
Hela Human cell line was used in view to evaluate cytotoxicity. It was evaluated with a spectrofluorimetric microdilution method. IC50 was the concentration that was able to inhibit 50% of fluorescence measured in the control wells.

Series [14] deals with Candida albicans strain (CAAL93). Put plainly: Murine systemic candidiasis. It counts as in vivo. Particulars: neutropenic Swiss mice, CAAL93 i.v., 10 mg/kg per os once a day for 5 days. The method, then: Transiently neutropenic female Swiss mice were used for experiments on systemic candidiasis and invasive aspergillosis.
Mice were inoculated intravenously with a Candida albicans strain (CAAL93). Treatment was administrated once a day (10 mg/kg per os) for 5 days. […] Fungal burden of the kidney was evaluated in dead animals during the experimentation or in animals sacrificed at the end of the experimentation.

For series [15], the system named is promastigote stage of a Leishmania mexicana strain. Nature of the series: Anti-Trypanosomatidae activity, promastigote stage, spectrofluorimetric microdilution. It counts as cell-based. The method, then: Compounds were evaluated on the promastigote stage of a Leishmania mexicana strain using a spectrofluorimetric microdilution method. Inhibitory concentration 50 (IC50) was the concentration that inhibited 50% of the control growth.

In the case of `C[C@@H](n1ccc2nc(-c3ccc([N+](=O)[O-])cc3)cn2c1=O)[C@](O)(Cn1cncn1)c1ccc(F)cc1F` [Compound 35, 6-[(1R,2R)-2-(2,4-Difluorophenyl)-2-hydroxy-1-methyl-3-(1H-1,2,4-triazol-1-yl)propyl]-2-(4-nitrophenyl)imidazo[1,2-c]pyrimidin-5-one], the MIC in series [1] is under 0.001 µg/mL; in series [2] it was 0.007 ± 0.003 µg/mL (≈ 0.0138 µM); in series [3], 0.2 ± 0.06 µg/mL (≈ 0.394 µM); in [4], 0.07 ± 0.01 µg/mL (≈ 0.138 µM); in [5] it was 0.011 ± 0.003 µg/mL (≈ 0.0217 µM); in series [6], 0.004 ± 0.003 µg/mL (≈ 0.00788 µM). In addition, the MIC in [7] worked out at 7.45 ± 1 µg/mL (≈ 14.7 µM); in series [8] it was 6.71 ± 0.06 µg/mL (≈ 13.2 µM); in series [9], 25.6 ± 24.8 µg/mL (≈ 50.5 µM); in series [10], 2.52 ± 0.05 µg/mL (≈ 4.97 µM); in series [11], 6.19 ± 0.8 µg/mL (≈ 12.2 µM); in [12], 62.2 ± 2.92 µg/mL (≈ 123 µM). Further, the “cytotoxic effect at the higher concentration used” value in [13] was “didn't show any cytotoxic effect”. Moreover, the “survival efficiency compared with FLC” value in [14] is “significantly more efficient than FLC”. Further, the “survival compared with the non-treated group” value in series [14] (28 days (compound 51, 14 days), p<0.05) is reported as “significant longer survival”. For the same molecule, the “activity on fungal burden of the kidney compared to FLC” value in series [14] (p<0.05) was “significantly higher when compared to FLC”. For the same molecule, the “fungal burden of the kidney” value in [14] (p<0.05 (compound 51 p<0.001)) is “significantly decreased”. Also, the “effectiveness against the promastigote stage of L. Mexicana, in words” value in series [15] is reported as “effective”. The IC50 in series [15] (Leishmania mexicana, promastigote stage, 50% of control growth, read-out: L. mexicana (IC50 μM)) worked out at 11.4 ± 1.5 µM.

Source of the values: US10626115B2, “Fused pyrimidinone and triazinone derivatives containing bridged nitrogen, their process of preparation and their therapeutic uses as antifungal and/or antiparasitic agents” (UNIVERSITE DE NANTES, priority 2015, dated 2020).
